The RepoRT retention time repository (doi:10.1007/s00216-021-03828-0)
Counter-ions that a name gives are not always drawn.

Tests used:
Conditions in all cases: stereoisomer not certain
[1] = RP, Merck Supelco Ascentis Express C18, 100 × 2.1 mm, 2 µm, 40 °C, 0.2 mL/min, estimated dead time 1.1 min; A: water + 0.1% formic acid, pH 3; B: acetonitrile + 0.1% formic acid, pH 3; gradient (min/%B) 0/5 2/5 17/99.9 20/99.9
[2] = RP, Merck Supelco Ascentis Express C18, 100 × 2.1 mm, 2 µm, 39 °C, 0.3 mL/min, estimated dead time 0.73 min; A: water + 0.1% formic acid, pH 3; B: acetonitrile + 0.1% formic acid, pH 3; gradient (min/%B) 0/5 2/5 17/99.9 20/99.9
[3] = RP, Merck Supelco Ascentis Express C18, 100 × 2.1 mm, 2 µm, 40 °C, 0.25 mL/min, estimated dead time 0.88 min; A: water + 0.1% formic acid, pH 3; B: acetonitrile + 0.1% formic acid, pH 3; gradient (min/%B) 0/5 2/5 17/99.9 20/99.9
[4] = RP, Merck Supelco Ascentis Express C18, 100 × 2.1 mm, 2 µm, 40 °C, 0.4 mL/min, estimated dead time 0.55 min; A: water + 0.1% formic acid, pH 3; B: acetonitrile + 0.1% formic acid, pH 3; gradient (min/%B) 0/5 2/5 17/99.9 20/99.9
[5] = RP, Merck Supelco Ascentis Express C18, 100 × 2.1 mm, 2 µm, 40 °C, 0.35 mL/min, estimated dead time 0.63 min; A: water + 0.1% formic acid, pH 3; B: acetonitrile + 0.1% formic acid, pH 3; gradient (min/%B) 0/5 2/5 17/99.9 20/99.9
[6] = RP, Merck Supelco Ascentis Express C18, 100 × 2.1 mm, 2 µm, 40 °C, 0.4 mL/min, estimated dead time 0.55 min; A: water + 0.1% formic acid, pH 3; B: acetonitrile + 0.1% formic acid, pH 3; gradient (min/%B) 0/5 2/5 17/99.9 20/99.9; remark: listed apart in the source
[7] = RP, Merck Supelco Ascentis Express C18, 100 × 2.1 mm, 2 µm, 40 °C, 0.2 mL/min, estimated dead time 1.1 min; A: water + 0.1% formic acid, pH 3; B: acetonitrile + 0.1% formic acid, pH 3; gradient (min/%B) 0/5 2/5 17/99.9 20/99.9; remark: listed apart in the source

| SMILES | LC retention time [1] [min] | LC retention time [2] [min] | LC retention time [3] [min] | LC retention time [4] [min] | LC retention time [5] [min] | LC retention time [6] [min] | LC retention time [7] [min] |
| --- | --- | --- | --- | --- | --- | --- | --- |
| CC12CCC(=O)C=C1CCC1C2CCC2(C)C1CCC2(O)C(=O)CO (configuration not stated) [CORTEXOLONE] | 9.16 | 8.25 | 8.66 | 7.73 | 7.95 | 7.69 | 9.2 |
| CC1OC(n2cnc3c(N)ncnc32)C(O)C1O (configuration not stated) [5'-DEOXYADENOSINE] | 1.92 | 1.24 | 1.49 | 0.95 | 1.09 | 0.937 | 1.89 |
| CC(=O)c1ccc(O)cc1O [2',4'-DIHYDROXYACETOPHENONE] | 7 | 5.94 | 6.34 | 5.17 | 5.5 | 5.14 | 7.01 |
| O=C(O)c1cccc(O)c1O [2,3-DIHYDROXYBENZOATE] | 5.32 | 2.06 | 2.44 | 1.53 | 3.88 | 1.52 | 5.33 |
| Nc1ccccc1S(=O)(=O)O [ANILINE-2-SULFONATE] | 1.76 | 1.18 | 1.38 | 0.847 | 0.95 | 0.823 | 1.74 |
| CCCCCCCCC=CCCCCCCCC(=O)O [ELAIDATE] | 18.1 | 16.8 |  | 16.1 | 16.4 | 16 | 18.2 |
| O=C(O)CCCCCCCC(=O)O [AZELATE] | 6.89 | 6.09 | 6.39 | 5.57 | 5.73 | 5.49 | 6.98 |
| O=C(O)CCCCC(=O)O [ADIPATE] |  |  | 3.27 | 2.04 | 2.33 | 2.02 | 3.99 |
| CC(CCC(=O)O)C(=O)O (configuration not stated) [2-METHYLGLUTARATE] |  |  | 3.27 | 2.05 | 2.33 | 2.02 | 3.99 |
| O=C([O-])Cc1ccccc1 [PHENYLACETATE] |  | 4.5 | 3.45 | 3.95 | 4.56 | 3.93 | 4.08 |
| NCC(=O)CCC(=O)O [5-AMINOLEVULINATE] | 1.53 | 1.01 |  | 0.737 | 0.853 | 0.74 | 1.51 |
| CCC=CCC=CCC=CCC=CCC=CCC=CCCC(=O)O [DOCOSAHEXAENOATE] |  |  | 15.8 | 14.5 | 14.8 | 14.5 | 16.5 |

Continued, values first:

| LC retention time [1] [min] | LC retention time [2] [min] | LC retention time [3] [min] | LC retention time [4] [min] | LC retention time [5] [min] | LC retention time [6] [min] | LC retention time [7] [min] | SMILES |
| --- | --- | --- | --- | --- | --- | --- | --- |
| 2.09 | 1.36 | 1.64 | 1.05 | 1.19 | 1.04 | 2.06 | Cc1cn(C2CC(O)C(CO)O2)c(=O)[nH]c1=O (configuration not stated) [THYMIDINE] |
| 9.94 | 9.19 | 9.46 | 8.55 | 8.79 | 8.55 | 10.1 | CC(=O)C1CCC2C3CC=C4CC(OS(=O)(=O)O)CCC4(C)C3CCC12C (configuration not stated) [PREGNENOLONE SULFATE] |
| 7.14 | 6.32 | 6.66 | 5.87 | 6.06 | 5.85 | 7.13 | CCCCCCSCC(NC(=O)CCC(N)C(=O)O)C(=O)NCC(=O)O (configuration not stated) [S-HEXYL-GLUTATHIONE] |
| 5.58 | 4.71 | 5.08 | 4.24 | 4.44 | 4.21 | 5.58 | CC(C)=CCNc1ncnc2nc[nH]c12 [N6-(DELTA2-ISOPENTENYL)-ADENINE] |
| 14.4 | 13.1 | 13.7 | 12.4 | 12.7 | 12.4 | 14.4 | CC(CCC(=O)O)C1CCC2C3CCC4CC(O)CCC4(C)C3CCC12C (configuration not stated) [LITHOCHOLATE] |
| 5.82 | 4.72 | 5.19 | 4.05 | 4.34 | 4.02 | 5.82 | NC(=O)c1ccccc1O [SALICYLAMIDE] |
| 6.32 | 5.39 | 5.78 | 4.85 | 5.07 | 4.81 | 6.33 | COc1cc(C=CC(=O)O)ccc1O [FERULATE] |
| 7 | 6.06 | 6.46 | 5.53 | 5.75 | 5.49 | 7.01 | COc1ccc2[nH]cc(CCNC(C)=O)c2c1 [MELATONIN] |
| 1.56 | 0.98 | 1.22 | 0.743 | 0.873 | 0.727 | 1.55 | CC(C)CC(N)C(=O)O (configuration not stated) [LEUCINE] |
|  |  | 17.7 | 16.4 | 16.7 | 16.3 | 18.5 | CCCCCCCCCCCCCCCCC(=O)O [HEPTADECANOATE] |
|  |  | 18.3 | 16.9 | 17.2 | 16.9 | 19.1 | CCCCCCCCCCCCCCCCCC(=O)[O-] [STEARATE] |
|  |  | 1.37 | 0.863 | 0.957 | 0.807 | 1.71 | CC(C(=O)O)C(=O)O [METHYLMALONATE] |
|  | 8.12 | 8.62 | 7.46 | 8.75 | 8.4 | 10.2 | COC(=O)Cc1c[nH]c2ccccc12 [INDOLE-3-METHYL ACETATE] |
| 7.21 | 6.2 | 6.63 | 5.6 | 5.84 | 5.56 |  | O=C(O)Cc1c[nH]c2ccccc12 [INDOLE-3-ACETATE] |
| 1.57 |  | 1.2 | 0.72 | 0.863 | 0.73 | 1.55 | CC(O)(CCO)CC(=O)[O-] (configuration not stated) [MEVALONATE] |
| 1.37 | 0.887 | 1.07 |  | 0.763 | 0.683 | 1.37 | C[Se]CCC(N)C(=O)O (configuration not stated) [SELENOMETHIONINE] |
